Measurements: patent US9556122B2, “Luminescent 1-hydroxy-2-pyridinone chelates of lanthanides” (THE REGENTS OF THE UNIVERSITY OF CALIFORNIA, priority 2006, dated 2017)

Assay: Preliminary extraction study
Conditions: over a wide range of acidity and ionic strength

**Q.** Which “specificity as extractant for Pu(IV)” value does the source give for `CCCCCCCCNC(=O)c1cccc(=O)n1O` [octyl-1,2-HOPO, 1-Hydroxy-6-N-octylcarboxamide-2(1H)-pyridinone] here?
**A.** high specificity
